Blank lines part the entries; values can stand above or below the compound they belong to.
Columns and labels:
[1] = tested on: SKBR3 (PI3Kα-Wild Type) cell line; test: HTRF phospho-AKT(S473) cell assay in SKBR3 cells; format: cell-based, human; conditions: Homo sapiens, SK-BR-3; SKBR3 (PI3Kα-Wild Type) cells, HTRF phospho-AKT(S473), 2 hours compound incubation, PDGF-BB stimulated
Summary of the method: (§1)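 pAKT(S473) in lysates read by HTRF after a 2 h, 37 °C compound exposure (12-point 1:3 series, max 0.5% DMSO). SKBR3 (wild type, top 10 μM) received 70 ng/ml PDGF-BB during the final 15 min; T47D (H1047R, top 5 μM) was unstimulated. IC50 values derived from the dose-response.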

[2] = target: PI3Kα H1047R (Homo sapiens, UniProt P42336, H1047R); test: PI3Kα H1047R enzyme assay (Transcreener ADP2 TR-FRET Red Assay); format: biochemical; conditions: purified recombinant full-length protein; 2 hours pre-incubation with compound
Description: (§2) Activity against PI3Kα and PI3Kα H1047R enzymes were determined in biochemical assays using purified recombinant full-length proteins with the Transcreener ADP^2 TR-FRET Red Assay from Bellbrook Labs. (Catalogue number 3011-10K). Test compounds were dissolved in DMSO and were tested in 11 point 1:3 serial dilutions, typical final concentration range from 50,000 nM to 0.85 nM. Enzymes were pre-incubated with compounds for 2 hours at room temperature prior to initiating the reactions. Assays were initiated with a 2×ATP/PI(4,5)P2 diC8 substrate mixture. After 60 minutes at room temperature, the reactions were quenched with detection reagent and incubated for an additional 60 minutes at room temperature. The plates were read using a multimode reader and the emission ratio of 665 nm to 615 nm was determined. This ratio was converted to percent of control (POC). [1-(high control-sample signal)/(high control-low control)]*100. Wells without compound were used to determine high control values and wells without enzyme were used to determine low control values. The POC values were fit using a four-parameter logistic model and the value where the fit curve was equal to 50 POC was reported as the IC50 using the Signals VitroVivo software package (PerkinElmer). Final assay conditions were: 40 mM HEPES pH 7.5, 20 mM NaCl, 25 mM MgCl2, 0.01% Triton X-100. The enzyme source, catalogue number, final enzyme concentration, and final ATP and PI(4,5)P2 diC8 concentration can be found in the table E10 below.

[3] = target: PI3Kα (Homo sapiens, UniProt P42336); test: PI3Kα enzyme assay (Transcreener ADP2 TR-FRET Red Assay); format: biochemical; conditions: purified recombinant full-length protein; 2 hours pre-incubation with compound; read-out: PI3Kα WT IC50
Description: as §2

[4] = tested on: T47D (PI3Kα-H1047R) cell line; test: HTRF phospho-AKT(S473) cell assay in T47D cells; format: cell-based, human; conditions: Homo sapiens; T47D (PI3Kα-H1047R) cells, HTRF phospho-AKT(S473), 2 hours compound incubation
Summary of the method: as §1

PI3Kα H1047R, sequence (P42336 whole entry H1047R): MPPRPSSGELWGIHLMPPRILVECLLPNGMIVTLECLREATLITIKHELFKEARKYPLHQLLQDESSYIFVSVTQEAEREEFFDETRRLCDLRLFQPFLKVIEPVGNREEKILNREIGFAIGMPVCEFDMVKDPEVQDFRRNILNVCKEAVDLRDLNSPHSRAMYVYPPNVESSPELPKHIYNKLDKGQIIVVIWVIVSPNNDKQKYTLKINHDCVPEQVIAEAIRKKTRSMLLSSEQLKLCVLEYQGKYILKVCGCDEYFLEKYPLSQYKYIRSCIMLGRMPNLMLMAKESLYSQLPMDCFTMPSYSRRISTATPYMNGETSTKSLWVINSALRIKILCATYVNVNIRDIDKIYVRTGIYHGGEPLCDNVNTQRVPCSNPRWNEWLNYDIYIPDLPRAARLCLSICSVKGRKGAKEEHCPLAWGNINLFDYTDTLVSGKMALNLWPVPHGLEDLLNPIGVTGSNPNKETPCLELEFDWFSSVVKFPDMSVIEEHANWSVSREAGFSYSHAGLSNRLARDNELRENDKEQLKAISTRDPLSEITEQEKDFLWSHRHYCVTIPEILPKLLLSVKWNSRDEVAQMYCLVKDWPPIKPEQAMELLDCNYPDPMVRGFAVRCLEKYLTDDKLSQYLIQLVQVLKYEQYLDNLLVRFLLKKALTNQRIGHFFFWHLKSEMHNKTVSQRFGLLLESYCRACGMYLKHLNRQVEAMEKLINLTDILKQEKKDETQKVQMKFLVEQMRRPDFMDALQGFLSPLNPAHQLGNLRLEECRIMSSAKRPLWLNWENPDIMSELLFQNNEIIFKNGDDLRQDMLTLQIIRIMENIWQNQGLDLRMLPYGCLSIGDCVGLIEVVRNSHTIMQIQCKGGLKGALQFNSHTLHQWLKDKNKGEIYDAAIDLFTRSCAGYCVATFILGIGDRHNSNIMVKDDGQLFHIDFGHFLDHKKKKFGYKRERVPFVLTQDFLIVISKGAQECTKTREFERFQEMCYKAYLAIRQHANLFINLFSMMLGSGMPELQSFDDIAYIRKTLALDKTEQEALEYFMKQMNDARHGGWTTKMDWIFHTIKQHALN
PI3Kα H1047R, sequence (P27986 2-724 partner): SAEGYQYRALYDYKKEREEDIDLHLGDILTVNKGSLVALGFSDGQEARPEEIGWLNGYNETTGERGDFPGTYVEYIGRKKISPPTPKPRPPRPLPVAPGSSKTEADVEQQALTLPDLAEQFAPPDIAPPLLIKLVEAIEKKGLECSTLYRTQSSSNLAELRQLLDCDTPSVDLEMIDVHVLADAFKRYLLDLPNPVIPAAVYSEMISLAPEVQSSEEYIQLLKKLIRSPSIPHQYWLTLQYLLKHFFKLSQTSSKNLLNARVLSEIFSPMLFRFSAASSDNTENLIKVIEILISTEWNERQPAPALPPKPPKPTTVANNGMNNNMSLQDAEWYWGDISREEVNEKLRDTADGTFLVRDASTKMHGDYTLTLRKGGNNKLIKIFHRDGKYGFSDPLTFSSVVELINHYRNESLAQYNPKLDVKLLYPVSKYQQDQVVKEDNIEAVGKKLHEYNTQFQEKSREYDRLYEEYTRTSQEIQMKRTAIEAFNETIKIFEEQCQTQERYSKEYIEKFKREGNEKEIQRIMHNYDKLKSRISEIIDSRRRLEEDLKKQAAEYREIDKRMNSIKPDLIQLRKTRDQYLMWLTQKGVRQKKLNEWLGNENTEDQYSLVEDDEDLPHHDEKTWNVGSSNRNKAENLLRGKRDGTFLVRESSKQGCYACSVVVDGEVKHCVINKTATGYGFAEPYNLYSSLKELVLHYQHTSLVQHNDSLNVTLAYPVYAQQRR
PI3Kα, sequence (P42336 whole entry): as the sequence (P42336 whole entry H1047R) above, with R1047H counted along it
PI3Kα, sequence (P27986 2-724 partner): as the sequence (P27986 2-724 partner) above

Compound: Cc1cc([C@@H](C)Nc2ccc(Cl)nc2C(=O)NS(C)(=O)=O)c2nc(N3CCC(F)(F)CC3)n(C)c(=O)c2c1 [Compound 57, (R)-6-chloro-3-((1-(2-(4,4-difluoropiperidin-1-yl)-3,6-dimethyl-4-oxo-3,4-dihydroquinazolin-8-yl)ethyl)amino)-N-(methylsulfonyl) picolinamide]
IC50 [1]: 1000 to 5000 nM
IC50 [2]: ≥ 1000 nM
IC50 [3]: ≥ 1000 nM
IC50 [4]: 500 to 1000 nM

Compound: Cc1cc([C@@H](C)Nc2ccc(Cl)nc2C(=O)NS(C)(=O)=O)c2nc(N3CCC(F)(F)C[C@@H]3C)n(C)c(=O)c2c1 (mixture of isomers) [Compound 12, 6-chloro-3-(((R)-1-(2-((S)-4,4-difluoro-2-methylpiperidin-1-yl)-3,6-dimethyl-4-oxo-3,4-dihydroquinazolin-8-yl)ethyl)amino)-N-(methylsulfonyl) picolinamide AND 6-chloro-3-(((R)-1-(2-((R)-4,4-difluoro-2-methylpiperidin-1-yl)-3,6-dimethyl-4-oxo-3,4-dihydroquinazolin-8-yl)ethyl)amino)-N-(methylsulfonyl) picolinamide]
IC50 [1]: 1000 to 5000 nM
IC50 [2]: 250 to 500 nM
IC50 [3]: ≥ 1000 nM
IC50 [4]: 250 to 500 nM

Compound: Cc1cc([C@@H](C)Nc2ccn[nH]c2=O)c2nc(N3Cc4ccc(F)cc4C3)n(C)c(=O)c2c1 [Compound 95, (R)-2-(5-fluoroisoindolin-2-yl)-3,6-dimethyl-8-(1-((3-oxo-2,3-dihydropyridazin-4-yl)amino)ethyl)quinazolin-4(3H)-one]
IC50 [1]: 1000 to 5000 nM
IC50 [2]: ≥ 1000 nM
IC50 [3]: ≥ 1000 nM
IC50 [4]: 1000 to 5000 nM

Compound: C[C@@H](Nc1ccc(Cl)nc1C(=O)NS(C)(=O)=O)c1cccc2c(=O)n(C)c(N3Cc4cnn(C)c4C3)nc12 [Compound 38, (R)-6-chloro-3-((1-(3-methyl-2-(1-methyl-4,6-dihydropyrrolo[3,4-c]pyrazol-5(1H)-yl)-4-oxo-3,4-dihydroquinazolin-8-yl)ethyl)amino)-N-(methylsulfonyl) picolinamide]
IC50 [1]: 1000 to 5000 nM
IC50 [2]: 500 to 1000 nM
IC50 [3]: ≥ 1000 nM
IC50 [4]: 250 to 500 nM

Compound: Cc1cc([C@@H](C)Nc2ccc(Cl)nc2C(=O)NS(C)(=O)=O)c2nc(N3CCC(F)(F)C[C@@H]3C)n(C)c(=O)c2c1 (single isomer, unassigned) [Compound 42, 6-chloro-3-(((R)-1-(2-((R*)-4,4-difluoro-2-methylpiperidin-1-yl)-3,6-dimethyl-4-oxo-3,4-dihydroquinazolin-8-yl)ethyl)amino)-N-(methylsulfonyl) picolinamide]
IC50 [1]: 1000 to 5000 nM
IC50 [2]: 500 to 1000 nM
IC50 [3]: ≥ 1000 nM
IC50 [4]: 250 to 500 nM

Compound: Cc1cc([C@@H](C)Nc2ccc(Cl)[nH]c2=O)c2nc(N3Cc4ccc(F)cc4C3)n(C)c(=O)c2c1 [Compound 93, (R)-8-(1-((6-chloro-2-oxo-1,2-dihydropyridin-3-yl)amino)ethyl)-2-(5-fluoroisoindolin-2-yl)-3,6-dimethylquinazolin-4(3H)-one]
IC50 [1]: ≥ 5000 nM
IC50 [2]: ≥ 1000 nM
IC50 [3]: ≥ 1000 nM
IC50 [4]: < 250 nM

Compound: C[C@@H](Nc1ccc(Cl)[nH]c1=O)c1cc(F)cc2c(=O)n(C)c(N3CCOCC3)nc12 [Compound 101, (R)-8-(1-((6-chloro-2-oxo-1,2-dihydropyridin-3-yl)amino)ethyl)-6-fluoro-3-methyl-2-morpholinoquinazolin-4(3H)-one]
IC50 [1]: ≥ 5000 nM
IC50 [2]: 100 to 250 nM
IC50 [3]: ≥ 1000 nM
IC50 [4]: 1000 to 5000 nM

Compound: Cc1cc([C@@H](C)Nc2ccc(Cl)nc2C(=O)NS(C)(=O)=O)c2nc(N(C)CC3(C(F)(F)F)CC3)n(C)c(=O)c2c1 [Compound 43, (R)-6-chloro-3-((1-(3,6-dimethyl-2-(methyl((1-(trifluoromethyl)cyclopropyl)methyl)amino)-4-oxo-3,4-dihydroquinazolin-8-yl)ethyl)amino)-N-(methylsulfonyl) picolinamide]
IC50 [2]: ≥ 1000 nM
IC50 [3]: ≥ 1000 nM

Continued, values first:

IC50 [1]: 500 to 1000 nM
IC50 [2]: 250 to 500 nM
IC50 [3]: ≥ 1000 nM
IC50 [4]: < 250 nM
Compound: C[C@@H](Nc1ccc(Cl)nc1C(=O)NS(C)(=O)=O)c1cc(F)cc2c(=O)n(C)c(N3Cc4cn(C)nc4C3)nc12 [Compound 37, (R)-6-chloro-3-((1-(6-fluoro-3-methyl-2-(2-methyl-2,6-dihydropyrrolo[3,4-c]pyrazol-5(4H)-yl)-4-oxo-3,4-dihydroquinazolin-8-yl)ethyl)amino)-N-(methylsulfonyl) picolinamide]

IC50 [1]: 1000 to 5000 nM
IC50 [2]: ≥ 1000 nM
IC50 [3]: ≥ 1000 nM
IC50 [4]: 250 to 500 nM
Compound: Cc1cc([C@@H](C)Nc2ccc(Cl)nc2C(=O)NS(C)(=O)=O)c2nc(-c3ccc(C)nc3)n(C)c(=O)c2c1 [Compound 84, (R)-6-chloro-3-((1-(3,6-dimethyl-2-(6-methylpyridin-3-yl)-4-oxo-3,4-dihydroquinazolin-8-yl)ethyl)amino)-N-(methylsulfonyl) picolinamide]

IC50 [1]: 1000 to 5000 nM
IC50 [2]: ≥ 1000 nM
IC50 [3]: ≥ 1000 nM
IC50 [4]: 250 to 500 nM
Compound: Cc1cc([C@@H](C)Nc2ccc(Cl)nc2C(=O)NS(C)(=O)=O)c2nc(N(C)C)n(C)c(=O)c2c1 [Compound 40, (R)-6-chloro-3-((1-(2-(dimethylamino)-3,6-dimethyl-4-oxo-3,4-dihydroquinazolin-8-yl)ethyl)amino)-N-(methylsulfonyl) picolinamide]

IC50 [1]: ≥ 5000 nM
IC50 [2]: ≥ 1000 nM
IC50 [3]: ≥ 1000 nM
IC50 [4]: 500 to 1000 nM
Compound: Cc1cc([C@@H](C)Nc2ccc(Cl)nc2C(=O)NS(C)(=O)=O)c2nc(N3CCc4ccccc4[C@H]3C)n(C)c(=O)c2c1 (mixture of isomers) [Compound 19, 6-chloro-3-(((R)-1-(3,6-dimethyl-2-((R)-1-methyl-3,4-dihydroisoquinolin-2(1H)-yl)-4-oxo-3,4-dihydroquinazolin-8-yl)ethyl)amino)-N-(methylsulfonyl) picolinamide AND 6-chloro-3-(((R)-1-(3,6-dimethyl-2-((S)-1-methyl-3,4-dihydroisoquinolin-2(1H)-yl)-4-oxo-3,4-dihydroquinazolin-8-yl)ethyl)amino)-N-(methylsulfonyl) picolinamide]

IC50 [1]: ≥ 5000 nM
IC50 [2]: ≥ 1000 nM
IC50 [3]: ≥ 1000 nM
IC50 [4]: 1000 to 5000 nM
Compound: Cc1cc([C@@H](C)Nc2ccc(Cl)nc2C(=O)NS(C)(=O)=O)c2nc(NCc3ccc(F)cc3C)n(C)c(=O)c2c1 [Compound 17, (R)-6-chloro-3-((1-(2-((4-fluoro-2-methylbenzyl)amino)-3,6-dimethyl-4-oxo-3,4-dihydroquinazolin-8-yl)ethyl)amino)-N-(methylsulfonyl) picolinamide]

IC50 [1]: 1000 to 5000 nM
IC50 [2]: 250 to 500 nM
IC50 [3]: ≥ 1000 nM
IC50 [4]: < 250 nM
Compound: Cc1cc([C@@H](C)Nc2ccc(Cl)nc2C(=O)NS(C)(=O)=O)c2nc(N3Cc4cnn(C)c4C3)n(C)c(=O)c2c1 [Compound 4, (R)-6-chloro-3-((1-(3,6-dimethyl-2-(1-methyl-4,6-dihydropyrrolo[3,4-c]pyrazol-5(1H)-yl)-4-oxo-3,4-dihydroquinazolin-8-yl)ethyl)amino)-N-(methylsulfonyl) picolinamide]

IC50 [1]: ≥ 5000 nM
IC50 [2]: ≥ 1000 nM
IC50 [3]: ≥ 1000 nM
IC50 [4]: 1000 to 5000 nM
Compound: Cc1ccc(N[C@H](C)c2cc(F)cc3c(=O)n(C)c(N4Cc5ccc(F)cc5C4)nc23)c(C(=O)NS(C)(=O)=O)n1 [Compound 61, (R)-3-((1-(6-fluoro-2-(5-fluoroisoindolin-2-yl)-3-methyl-4-oxo-3,4-dihydro-quinazolin-8-yl)ethyl)amino)-6-methyl-N-(methylsulfonyl) picolinamide]

IC50 [1]: 1000 to 5000 nM
IC50 [2]: ≥ 1000 nM
IC50 [3]: ≥ 1000 nM
IC50 [4]: 1000 to 5000 nM
Compound: C[C@@H](Nc1ccc(Cl)nc1C(=O)NS(C)(=O)=O)c1cc(F)cc2c(=O)n(C)c(-c3cncc(F)c3)nc12 [Compound 90, (R)-6-chloro-3-((1-(6-fluoro-2-(5-fluoropyridin-3-yl)-3-methyl-4-oxo-3,4-dihydroquinazolin-8-yl)ethyl)amino)-N-(methylsulfonyl) picolinamide]

IC50 [1]: 1000 to 5000 nM
IC50 [2]: 250 to 500 nM
IC50 [3]: ≥ 1000 nM
IC50 [4]: 250 to 500 nM
Compound: Cc1cc([C@@H](C)Nc2ccc(Cl)nc2C(=O)NS(C)(=O)=O)c2nc(NCC3CC3)n(C)c(=O)c2c1 [Compound 8, (R)-6-chloro-3-((1-(2-((cyclopropylmethyl)amino)-3,6-dimethyl-4-oxo-3,4-dihydroquinazolin-8-yl)ethyl)amino)-N-(methylsulfonyl) picolinamide]

— patent US12281122B1, “PI3K inhibitors” (Cogent Biosciences, Inc., priority 2023, dated 2025)
